Literature values in article PMC4306626 (Journal of chromatography. B, Analytical technologies in …, 2015).

Conditions: cited from earlier work

CS(=O)(=O)CCNCc1ccc(-c2ccc3ncnc(Nc4ccc(OCc5cccc(F)c5)c(Cl)c4)c3c2)o1 [lapatinib]
systemic bioavailability (F) (10 mg/kg oral input): 43 – 50%
time-to-peak (Tmax) (PO, 10 mg/kg, male mice): 30 min
